According to patent US20220062166A1, “Self-Gelling Solutions for Administration of Therapeutics to the Inner Ear” (Spiral Therapeutics, Inc., priority 2019, published 2022):

How the values were obtained:
[1] = tested on: BALB/c 3T3 mouse fibroblasts; test: In vitro phototoxicity in BALB/c 3T3 mouse fibroblasts; assay type: cell-based; conditions: ≤100 μM
Method: An in vitro experiment was performed in BALB/c 3T3 mouse fibroblasts to determine the phototoxic potential of LPT99 at concentrations of ≤100 μM in 3T3L1 cells.

Cl-GABA-gated channel = test: Off-target panel: Cl- GABA-gated channel; assay type: binding
Method: To identify off-target activities of LPT99, its selectivity against a panel of receptors (44 G-protein-coupled receptors [GPCR] and 4 non-GPCR), 4 ion channels, and 3 transporters were analyzed. The cell line, HEI-OC1 (house ear institute organ of Corti 1), which expresses several characteristic markers of the organ of Corti sensory cells (Kalinec, et al. , Audiol. Neurootol. 2003, 8(4), 177-89), was used to evaluate the efficacy of LPT99 in preventing apoptosis due to […]. Cells were pre-incubated with LPT99, followed by […] for 24 hours.
For 14 of the tested targets—adenosine receptor 3 (A3); cholecystokinin: cholecystokinin receptor 1 (CCK1); melatonin receptor (MT1); neurokinin (NK2 and NK3); opioid (kOP and mOP); serotonin receptors (5HT-1A, 5HT-2A, 5HT−2B and 5HT−7); and vasopressin (V1A; Na+channel site 2 and Cl-GABA-gated channel)—the LPT99 affinity was >50%. At 1 μM, the inhibition of 13 of these targets was <50%, indicating a very low affinity with LPT99.

caspase 3 = target: T1, caspase 3 (Homo sapiens, UniProt P42574); test: Caspase 3 activation assay with recombinant proteins; assay type: biochemical; conditions: in %
T1 sequence (P42574 29-277): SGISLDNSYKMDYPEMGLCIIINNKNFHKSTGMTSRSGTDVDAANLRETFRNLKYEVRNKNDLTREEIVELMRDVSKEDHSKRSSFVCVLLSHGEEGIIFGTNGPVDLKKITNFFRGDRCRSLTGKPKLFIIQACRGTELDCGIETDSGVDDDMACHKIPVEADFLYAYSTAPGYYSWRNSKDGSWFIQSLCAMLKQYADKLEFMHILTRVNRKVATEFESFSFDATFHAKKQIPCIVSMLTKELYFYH
Method: The specificity of LPT99 was tested in vitro on Apaf1, caspase 3, and caspase 9 (proteins from the apoptotic cascade), and a broad panel of potential pharmacological targets.
LPT99 inhibited the formation of the apoptosome complex composed by recombinant Apaf1, cyt c, deoxyadenosine triphosphate (dATP), and caspase 9. This activity was measured as inhibition of caspase 3 activation. […] To evaluate the specificity of the inhibition, an assay of caspase 3 and 9 activation was set up with recombinant proteins. The inhibitions of caspase 3 and 9 were 7.6±14.7 and 5.3±3.5, respectively, for LPT99.

[2] = GLP dermal sensitization main study (Buehler test) in guinea pigs; assay type: in vivo, guinea pig; conditions: 24 or 48 hours after the challenge dose, 797 μM
Method: A GLP-compliant dermal sensitization study was conducted with LPT99 in guinea pigs. The objective was to assess potential dermal sensitization of LPT99 using the Buehler test (Buehler, Arch Dermatol. 1965, 91, 171-7). The test article, LPT99, was in a neutral-pH, buffered, isotonic solution containing a thermoreversible compound. The vehicle control was buffered at neutral pH and formulated as for the test article; it contained POLOXAMER® 407, disodium phosphate dodecahydrate hydrogen, sodium dihydrogen phosphate dihydrate, sodium chloride, and water for injection. The main study consisted of 2 groups of 20 or 10 guinea pigs. Group 1 was 10 male and 10 female guinea pigs dosed with the highest concentration of LPT99, 797 μM, that was used in the dose range-finding substudy (Group 1). Group 2 was 5 male and 5 female animals that were not dosed with LPT99 (Group 2) during the induction phase and served as naïve controls; Group 2 was challenged with LPT99 on Day 28. LPT99 was topically administered to the skin in the shaved scapula area in a volume of 50 μL on Study Days 0, 7, and 14 (induction doses), and on Day 28 (challenge dose). […] The PDII (post-challenge) was calculated for the test article or vehicle by dividing the sum of the Total Irritation Score by the number of observations (e.g., 3 days×6 animals=18 (number of observations).

[3] = tested on: noise-induced ABR threshold shift; test: Noise trauma ABR threshold study; assay type: in vivo; conditions: at 10 and 21 days; TRAUMA+LPT99 group
[4] = Metabolic profile and stability in microsomal and S9 hepatic fractions; assay type: in vitro ADME, human, dog, rabbit, rat, and mouse
Text: The metabolic profile and stability of LPT99 was characterized in human, dog, rabbit, rat, and mouse microsomal and S9 fractions, and in human cytosolic fractions.

hERG = target: T2, hERG (Homo sapiens, UniProt Q12809); test: hERG automated patch clamp assay in hERG-CHO cells; assay type: cell-based; conditions: detection limit 3.2 nM
T2 construct: expressed in transfected cells; host or cells: CHO
Text: The potential cardiotoxicity of LPT99 was investigated in an assay using the hERG-CHO cells transfected with the automated patch clamp assay.

[5] = tested on: CisPt-induced hearing loss; test: Model of CisPt-induced hearing loss in rats (TT administration); assay type: in vivo, rat; conditions: TT administration of LPT99 in hydrogel, dose dependent
Method: The protective effect of LPT99 was evaluated 3 days […] administration by functional measures, such as auditory brainstem response (ABR) threshold shift, DPOAE, and expression of biomarkers of apoptosis in cochlea and cytocochleograms.

[6] = tested on: ion channels, including hERG potassium channels; test: Effects on ion channels including hERG in CHO and HEK 293 cells; assay type: cell-based
Text: Torsadogenic refers to the development of torsade de Pointes (TdP) arrhythmias

T2 sequence (Q12809 whole entry): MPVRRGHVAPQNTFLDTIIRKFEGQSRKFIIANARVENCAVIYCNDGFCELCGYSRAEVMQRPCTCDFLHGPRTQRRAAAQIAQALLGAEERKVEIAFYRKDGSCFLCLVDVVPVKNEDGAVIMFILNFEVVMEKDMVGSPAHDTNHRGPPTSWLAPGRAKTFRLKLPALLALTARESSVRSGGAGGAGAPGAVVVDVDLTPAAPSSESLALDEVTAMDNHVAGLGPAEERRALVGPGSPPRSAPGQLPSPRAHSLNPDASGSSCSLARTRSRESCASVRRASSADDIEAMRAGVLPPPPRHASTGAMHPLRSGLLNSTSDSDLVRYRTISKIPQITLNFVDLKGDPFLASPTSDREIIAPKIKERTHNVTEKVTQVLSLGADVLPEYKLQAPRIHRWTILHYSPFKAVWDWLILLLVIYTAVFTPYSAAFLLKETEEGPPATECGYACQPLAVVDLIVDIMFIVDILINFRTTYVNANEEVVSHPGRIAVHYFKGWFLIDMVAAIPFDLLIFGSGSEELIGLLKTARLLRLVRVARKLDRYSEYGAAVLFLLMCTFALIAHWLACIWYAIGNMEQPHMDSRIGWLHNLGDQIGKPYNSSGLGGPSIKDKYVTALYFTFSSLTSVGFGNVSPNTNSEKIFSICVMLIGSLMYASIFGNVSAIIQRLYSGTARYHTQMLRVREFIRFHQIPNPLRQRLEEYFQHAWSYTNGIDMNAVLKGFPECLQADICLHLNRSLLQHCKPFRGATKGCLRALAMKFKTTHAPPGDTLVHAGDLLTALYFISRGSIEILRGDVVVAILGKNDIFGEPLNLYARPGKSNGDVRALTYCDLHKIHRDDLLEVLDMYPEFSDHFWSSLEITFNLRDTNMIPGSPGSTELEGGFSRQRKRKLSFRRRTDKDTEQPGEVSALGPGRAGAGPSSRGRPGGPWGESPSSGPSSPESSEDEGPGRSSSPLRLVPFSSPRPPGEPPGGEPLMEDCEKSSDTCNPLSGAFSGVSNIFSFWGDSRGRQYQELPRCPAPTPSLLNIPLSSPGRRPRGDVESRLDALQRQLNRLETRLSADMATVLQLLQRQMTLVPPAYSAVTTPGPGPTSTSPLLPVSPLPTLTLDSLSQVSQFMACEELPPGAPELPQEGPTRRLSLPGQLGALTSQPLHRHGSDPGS

**Q.** What does the source list for `COc1ccc2[nH]cc(CCNC(=O)CC3C(=O)N(CCc4ccc(Cl)cc4Cl)CC(=O)N3CCc3cccs3)c2c1` (centres unmarked) [LPT99, 2-(4-(2,4-dichlorophenethyl)-3,6-dioxo-1-(2-(thiophen-2-yl)ethyl)piperazin-2-yl)-N-(2-(5-methoxy-1H-indol-3-yl)ethyl)acetamide]?
**A.** cytotoxicity in presence or absence of ultraviolet-visible irradiation [1]: not cytotoxic; inhibition Cl-GABA-gated channel (Cl-GABA-gated channel; 1 μM): < 50%; affinity (inhibition) Cl-GABA-gated channel (Cl-GABA-gated channel; 10 μM): > 50%; inhibition of caspase 3 (caspase 3): 7.6±14.7; Draize scores [2]: No Draize scores were >0; ABR Threshold shift after noise exposure [3]: back at basal levels; number of metabolites formed through phase I biotransformation [4]: ≤ 9; metabolized after 1 hour ([4]; microsomal and S9 hepatic fractions, all tested species): > 90%; safety margin (hERG IC50 vs plasma detection limit) (hERG): > 1063; protection against CisPt-induced hearing loss vs vehicle control [5]: protected against CisPt-induced hearing loss; torsadogenic risk [6]: low torsadogenic risk
